≈ marks a conversion by molar mass, not a printed value. Like-named read-outs stand apart in the source and are kept apart here. Non-standard residues stand in square brackets, D forms with d. Residues, ends and D or L forms follow the SMILES beside them. d1Nal = N[C@H](Cc1cccc2ccccc12)C(=O)O
Tests used:
[1] = test system: Streptococcus sobrinus; assay: microbe, parasite or virus in culture; conditions: read-out: Minimum Inhibitory Concentrations
[2] = test system: Enterococcus hirae; assay: microbe, parasite or virus in culture; conditions: read-out: Minimum Inhibitory Concentrations
[3] = test system: Pseudomonas aeruginosa; assay: microbe, parasite or virus in culture
[4] = test system: Enterococcus faccium (VRE); assay: microbe, parasite or virus in culture; conditions: read-out: Minimum Inhibitory Concentrations
[5] = test system: Prevotella intermedia; assay: microbe, parasite or virus in culture; type: cell-based; conditions: Prevotella intermedia 25261; read-out: Minimum Inhibitory Concentrations
Experimental: (§1) Acne vulgaris may involve a microbial consortium. Although P. acnes may be a prominent member of such a consortium, other uncharacterized bacteria may also participate. The microbial activity of XMP.629 as an acetate gel as described in Example 5 and other commonly used antibiotics was evaluated against a panel of human pathogens using standardized NCCLS protocols. […] Lesser potency was observed against the gram-negative organisms B. fragilis, B. cepacia, P. mirabilis and S. marcescens, which are often refractory to many antimicrobial compounds.

[6] = test system: Proteus mirabilis; assay: microbe, parasite or virus in culture; type: cell-based; conditions: Proteus mirabilis 29852; read-out: Minimum Inhibitory Concentrations
Experimental: as §1

[7] = test system: Klebsiella pneumoniae; assay: microbe, parasite or virus in culture; type: cell-based; conditions: Klebsiella pneumoniae, read-out: Minimum Inhibitory Concentrations
Experimental: as §1

[8] = test system: Porphyromonas gingivalis; assay: microbe, parasite or virus in culture; type: cell-based; conditions: Porphyromonas gingivalis 33277; read-out: Minimum Inhibitory Concentrations
Experimental: as §1

[9] = test system: Salmonella ryphimurium; assay: microbe, parasite or virus in culture; type: cell-based; conditions: Salmonella ryphimurium SL770; read-out: Minimum Inhibitory Concentrations
Experimental: as §1

[10] = test system: Burkholderia cepacia; assay: microbe, parasite or virus in culture; type: cell-based; conditions: Burkholderia cepacia 25416; read-out: Minimum Inhibitory Concentrations
Experimental: as §1

[11] = test system: Actinobacillus actinomycetemcomitans; assay: microbe, parasite or virus in culture; type: cell-based; conditions: Aggregatibacter actinomycetemcomitans; Actinobacillus actinomycetemcomitans 43718; read-out: Minimum Inhibitory Concentrations
Experimental: as §1

[12] = test system: Serratia marcescens; assay: microbe, parasite or virus in culture; type: cell-based; conditions: Serratia marcescens 13880; read-out: Minimum Inhibitory Concentrations
Experimental: as §1

[13] = test system: Escherichia coli; assay: microbe, parasite or virus in culture; type: cell-based; conditions: Escherichia coli, read-out: Minimum Inhibitory Concentrations
Experimental: as §1

[14] = test system: Macrococcus caseolyticus; assay: microbe, parasite or virus in culture; conditions: Macrococcoides caseolyticum, read-out: Minimum Inhibitory Concentrations
[15] = test system: Streptococcus mutans; assay: MIC, panel of human pathogens, standardized NCCLS protocols; type: cell-based; conditions: read-out: Minimum Inhibitory Concentrations
[16] = test system: Streptococcus pneumoniae; assay: microbe, parasite or virus in culture; conditions: read-out: Minimum Inhibitory Concentrations
[17] = test system: patients; conditions: clinical trials; cited from earlier work
[18] = 10 mg/kg oral gavage
[19] = physchem
Experimental: In additional studies, a variety of formulations of XMP.629 were tested for stability under various temperatures, such as 25° C., 40° C., and 50° C., and at various time points, such as 0.5, 1, and 2 months.
The solubility of XMP.629 acetate in various solvents was also evaluated.
Solubility studies were conducted using a variety of solvent systems and/or skin penetration enhancers.

[20] = in vivo; conditions: both, rat, plasma, po, 10 mg/kg, Bioavailability, 10 mg/kg oral gavage in distilled water
[21] = test system: E. coli; conditions: E. coli 4104 LF
[22] = test system: Bacteroides fragilis; assay: microbe, parasite or virus in culture; type: cell-based; conditions: Bacteroides fragilis 25285; read-out: Minimum Inhibitory Concentrations
Experimental: as §1

[23] = test system: Staphylococcus aureus; conditions: Staphylococcus aureus 342U-116
[24] = test system: P. acnes; assay: microbe, parasite or virus in culture; conditions: Cutibacterium acnes, read-out: MIC90 of Standard Topical Agents
Experimental: An in vitro assessment of antibiotic activity in XMP.629 and various known antibiotics against a representative panel of bacterial strains associated with acne was conducted. A broth dilution methodology was employed using guidelines established by National Committee for Clinical Laboratory Standards (NCCLS) for anaerobic organisms to establish an antibacterial profile for XMP.629. Assays to determine the minimal bactericidal concentrations (MBC) and minimal inhibitory concentration (MIC) were conducted for XMP.629 and other known antibiotics.
Inoculum from a representative panel of bacterial strains associated with acne, such as P. acnes, P. avidum, P. granulosum, and Staphylococcus epidermis was prepared by suspending approximately 5-10 isolated bacterial colonies in pre-reduced MicroScan® Inoculum Water (Dade Behring, Deerfield, Ill.), and growing the bacterial suspension to log phase (approximately 48 hrs). An inoculum of between 1-5×10^6/mL was achieved by adding 100 μL of the suspension to 25 mL Brain Heart Infusion Broth (BHI) (Anaerobe Systems, Morgan Hill, Calif.).
A stock solution of XMP.629 dissolved in water at a concentration of 4.0 mg/mL was prepared. Dilute solutions of XMP.629 at concentrations ranging from about 1.25 to about 160 μg/mL were made in either water or formulation buffer (130 mM sodium chloride, 0.2% P103 (poloxamer 333), and 0.10% EDTA, pH 7.3).
Control tubes containing only water or formulation buffer were prepared for each isolate. Initial growth controls were determined by removing 10 μL from the water control tube and diluting it by 100 fold. From this dilution, 10 μL was used for inoculation and for spreading over the surface onto Laked Blood Agar (LBA) (Anaerobe Systems, Morgan Hill, Calif.) plates. The tubes and plates were incubated in an anaerobic atmosphere at 37° C. for 48 h.

[25] = test system: Corynebacterium; assay: microbe, parasite or virus in culture; type: cell-based; conditions: read-out: MIC90 of Standard Topical Agents
Experimental: (§2) Control tubes containing only water or formulation buffer were prepared for each isolate. Initial growth controls were determined by removing 10 μL from the water control tube and diluting it by 100 fold. From this dilution, 10 μL was used for inoculation and for spreading over the surface onto Laked Blood Agar (LBA) (Anaerobe Systems, Morgan Hill, Calif.) plates. The tubes and plates were incubated in an anaerobic atmosphere at 37° C. for 48 h. […] MBC50 and 90 values represent where 50 and 90%, respectively, of the tested strain's MBC values are equal to or less than the indicated concentration.

[26] = test system: S. aureus; assay: Comparison of XMP.629 with standard topical agents (MIC90/MBC); type: cell-based, Staphylococcus aureus; conditions: Staphylococcus aureus
Experimental: as §2

[27] = test system: P. acnes strain (ATCC 6919); conditions: P. acnes ATCC 6919 passaged in the drug, level of the resistant culture sought/obtained
[28] = test system: P. acnes; conditions: strains UPC686 and UP2022; with XMP.629
[29] = test system: P. acnes strain (ATCC 6919); assay: microbe, parasite or virus in culture; conditions: Cutibacterium acnes, ATCC6919, read-out: MIC for matched, untreated, control organisms
[30] = test system: P. acnes; assay: microbe, parasite or virus in culture; conditions: Cutibacterium acnes
[31] = test system: Staphylococcus aureus; assay: microbe, parasite or virus in culture
[32] = test system: Clostridium difficile; assay: microbe, parasite or virus in culture; conditions: Clostridioides difficile, read-out: Minimum Inhibitory Concentrations
[33] = test system: Propionibacterium acnes; assay: microbe, parasite or virus in culture; conditions: Cutibacterium acnes, read-out: Minimum Inhibitory Concentrations
[34] = test system: Enterococcus; type: cell-based
Experimental: as §2

[35] = test system: skin of healthy subjects; assay: 21-day cumulative skin irritation study in healthy subjects; conditions: occlusive patches
Experimental: Subjects include males and females, ranging in age from 18 to 70 years old. Subjects are of any skin and race type.
Patches are prepared approximately 5-60 minutes before application to the subject and are applied on the backs of subjects at designated sites. Patches are held in place with appropriate adhesion tapes for 48 hours. Gels are applied to the same site on a given subject according to the randomization code three times per week. Subjects are instructed to keep the patches dry and are asked to avoid exercise that results in excessive sweating. Additionally, subjects are instructed to not expose the applied sites to sunlight for the duration of the study.
Every application is observed 48 hours later for signs of irritation or inflammation by a clinician or investigator. The clinician or investigator evaluates sign of skin reaction on each site for approximately 5-15 minutes after the patch is removed. Skin irritancy is rated according to the following commonly used 6-point scale: • 0=No sign of irritation • 0.5=Barely perceptible erythema • 1=Slight erythema • 2=Noticeable erythema with slight infiltration • 3=Erythema with marked edema • 4=Erythema with edema and blistering
Other signs of skin reaction to the tested gels are noted as adverse events and are recorded. A total of nine readings are performed during the study. […]

[36] = read-out: Minimum Inhibitory Concentrations, Pseudomonas aeruginosa 27853
[37] = read-out: Minimum Inhibitory Concentrations, Pseudomonas aeruginosa XS-65 (MDR)
[38] = BAA38|MRSA, read-out: Minimum Inhibitory Concentrations, Staphylococcus aureus BAA-38 (MRSA)
[39] = read-out: Minimum Inhibitory Concentrations, Staphylococcus aureus 19636

Compound: O=C(O)c1cn(C2CC2)c2cc(N3CCNCC3)c(F)cc2c1=O [Ciprofloxacin]
- MIC [1]: 2 µg/mL (≈ 6.04 µM)
- MIC [2]: ≤ 1 µg/mL
- MIC ([3]; read-out: Minimum Inhibitory Concentrations, Pseudomonas aeruginosa 9027): 0.13 µg/mL (≈ 0.392 µM)
- MIC ([3]; read-out: Minimum Inhibitory Concentrations, Pseudomonas aeruginosa 19660): 0.13 µg/mL (≈ 0.392 µM)
- MIC [3, 36]: ≤ 1 µg/mL
- MIC [3, 37]: ≤ 1 µg/mL
- MIC [4]: 64 µg/mL (≈ 193 µM)
- MIC [5]: ≤ 1 µg/mL
- MIC [6]: ≤ 0.063 µg/mL
- MIC ([7]; Klebsiella pneumoniae 19645): 0.13 µg/mL (≈ 0.392 µM)
- MIC ([7]; Klebsiella pneumoniae 29011): ≤ 0.063 µg/mL
- MIC [8]: ≤ 1 µg/mL
- MIC [9]: ≤ 1 µg/mL
- MIC [10]: 1 µg/mL (≈ 3.02 µM)
- MIC [11]: ≤ 1 µg/mL
- MIC [12]: 0.06 µg/mL (≈ 0.181 µM)
- MIC ([13]; Escherichia coli 07:K1): ≤ 0.25 µg/mL
- MIC ([13]; Escherichia coli 0111:B4): ≤ 0.063 µg/mL
- MIC [14]: ≤ 1 µg/mL
- MIC ([15]; Streptococcus mutans 25175): 2 µg/mL (≈ 6.04 µM)
- MIC [16]: ≤ 1 µg/mL

Compound: O=C(O)CCCCCCCC(=O)O [azelaic acid]
- patients reporting pruritus (itching), burning, stinging, and tingling [17]: 1-5%

Compound: CC(C)C[C@@H](NC(=O)[C@H](N)CCCCN)C(=O)N[C@H](Cc1ccccc1)C(=O)N[C@H](CCCNC(=N)N)C(=O)N[C@H](Cc1cccc2ccccc12)C(=O)N[C@H](CCC(N)=O)C(=O)N[C@H](C)C(=O)N[C@H](CCCCN)C(=O)N[C@H](Cc1cccc2ccccc12)C(N)=O [XMP.629 acetate] (H-[dK][dL][dF][dR][d1Nal][dQ][dA][dK][d1Nal]-NH2)
- Bioavailability, 5% glucose formulation versus distilled water [18]: ~4 fold
- peak concentrations, 5% glucose formulation versus distilled water [18]: ~4 fold
- time of peak concentrations following dosing [18]: 10 to 20 min
- solubility ([19]; ethanol, 200 proof): < 2200 µg/mL
- solubility ([19]; propylene glycol): 10600 to 12500 µg/mL
- solubility ([19]; purified water): < 1660 µg/mL
- solubility ([19]; sodium acetate buffer, pH 6): > 1640 µg/mL
- solubility ([19]; transcutol P): < 170 µg/mL
- bioavailability [20]: ~0.001%

Compound: CO/N=C(\C(=O)N[C@@H]1C(=O)N2C(C(=O)O)=C(CSc3nc(=O)c(=O)[nH]n3C)CS[C@H]12)c1csc(N)n1 [Ceftriaxone]
- MIC [3, 36]: 8 µg/mL (≈ 14.4 µM)
- MIC [3, 37]: 16 µg/mL (≈ 28.9 µM)
- MBC (antibiotic alone) [21]: ≦4 μg/mL
- MIC [6]: ≤ 0.063 µg/mL
- MIC ([7]; Klebsiella pneumoniae 19645): > 64 µg/mL
- MIC ([7]; Klebsiella pneumoniae 29011): 0.13 µg/mL (≈ 0.234 µM)
- MIC [22]: 2.5 µg/mL (≈ 4.51 µM)
- MIC [12]: 0.25 µg/mL (≈ 0.451 µM)
- MIC ([13]; Escherichia coli 07:K1): ≤ 0.25 µg/mL
- MIC ([13]; Escherichia coli 0111:B4): ≤ 0.063 µg/mL
- MBC (antibiotic alone) [23]: >4 µg/mL

Compound: CC[C@H]1OC(=O)[C@H](C)[C@@H](O[C@H]2C[C@@](C)(OC)[C@@H](O)[C@H](C)O2)[C@H](C)[C@@H](O[C@@H]2O[C@H](C)C[C@H](N(C)C)[C@H]2O)[C@](C)(O)C[C@@H](C)C(=O)[C@H](C)[C@@H](O)[C@]1(C)O [Erythromycin]
- MIC90 [24]: > 256 µg/mL
- MIC90 [25]: 0.5 µg/mL (≈ 0.681 µM)
- MIC90 [26]: > 4 µg/mL
- MIC/MBC ([27]; listed as Erythromycin IR): 64 µg/mL (≈ 87.2 µM)
- MIC/MBC ([27]; listed as Erythromycin R): >64 µg/mL
- FIC [28]: 2
- MIC [29]: 4 µg/mL (≈ 5.45 µM)
- MIC ([30]; ATCC6919, ATCC 6919 converted to an intermediate-erythromycin strain): 64 µg/mL (≈ 87.2 µM)
- MIC ([30]; clindamycin/erythromycin sensitive strain UP2022): < 1 µg/mL

Compound: Cc1onc(-c2ccccc2)c1C(=O)N[C@@H]1C(=O)N2[C@@H]1SC(C)(C)[C@@H]2C(=O)O [Oxacillin]
- MIC [31, 38]: 8 µg/mL (≈ 19.9 µM)
- MIC [31, 39]: 1 µg/mL (≈ 2.49 µM)
- MIC [4]: > 64 µg/mL
- MBC (antibiotic alone) [23]: 1 µg/mL (≈ 2.49 µM)

Compound: CN[C@H](CC(C)C)C(=O)N[C@H]1C(=O)N[C@@H](CC(N)=O)C(=O)N[C@H]2C(=O)N[C@H]3C(=O)N[C@H](C(=O)N[C@H](C(=O)O)c4cc(O)cc(O)c4-c4cc3ccc4O)[C@H](O)c3ccc(c(Cl)c3)Oc3cc2cc(c3O[C@@H]2O[C@H](CO)[C@@H](O)[C@H](O)[C@H]2O[C@H]2C[C@](C)(N)[C@H](O)[C@H](C)O2)Oc2ccc(cc2Cl)[C@H]1O [Vancomycin]
- MIC [1]: 1 µg/mL (≈ 0.69 µM)
- MIC90 [24]: 2 µg/mL (≈ 1.38 µM)
- MIC [31, 38]: 1 µg/mL (≈ 0.69 µM)
- MIC ([31]; read-out: Minimum Inhibitory Concentrations, Staphylococcus aureus 6258): 2 µg/mL (≈ 1.38 µM)
- MIC ([31]; read-out: Minimum Inhibitory Concentrations, Staphylococcus aureus 11371): 1 µg/mL (≈ 0.69 µM)
- MIC ([31]; read-out: Minimum Inhibitory Concentrations, Staphylococcus aureus 12598): 1.25 µg/mL (≈ 0.863 µM)
- MIC [31, 39]: ≤ 1 µg/mL
- MIC90 [25]: 0.5 µg/mL (≈ 0.345 µM)
- MIC90 [26]: 4 µg/mL (≈ 2.76 µM)
- MIC [32]: 1 µg/mL (≈ 0.69 µM)
- MIC [4]: > 64 µg/mL
- MIC [33]: 2 µg/mL (≈ 1.38 µM)
- MIC90 of Standard Topical Agents [34]: 1.0/NE
- MIC ([15]; Streptococcus mutans): 2 µg/mL (≈ 1.38 µM)

Compound: CCCCCCCCCCCCOS(=O)(=O)[O-].[Na+] [sodium lauryl sulfate]
- cumulative irritation, conclusion [35]: mild cumulative irritation
- mean cumulative irritation score [35]: 0.25

Source: patent US20050148495A1, “Methods and materials including for treating acne” (priority 2003, published 2005)
